Laboratory results taken from US12139520B2 (priority 2020, dated 2024).
Bridge positions count the residues as written; N and C are the ends. Square brackets hold non-standard residues; d marks the D form. Peptide text beside a SMILES is read from it. Hyp = O=C(O)[C@@H]1C[C@@H](O)CN1; Cit = NC(=O)NCCC[C@H](N)C(=O)O

Tests used:
hAMY3 receptor = molecular target: T1, hAMY3 receptor (Homo sapiens, UniProt O60896+P30988); experiment: cAMP assay for in vitro receptor activation, hAMY3-R; type: cell-based; conditions: cAMP assay, hAMY3 receptor; read-out: hAMY3R EC50
T1 sequence (P30988 25-474): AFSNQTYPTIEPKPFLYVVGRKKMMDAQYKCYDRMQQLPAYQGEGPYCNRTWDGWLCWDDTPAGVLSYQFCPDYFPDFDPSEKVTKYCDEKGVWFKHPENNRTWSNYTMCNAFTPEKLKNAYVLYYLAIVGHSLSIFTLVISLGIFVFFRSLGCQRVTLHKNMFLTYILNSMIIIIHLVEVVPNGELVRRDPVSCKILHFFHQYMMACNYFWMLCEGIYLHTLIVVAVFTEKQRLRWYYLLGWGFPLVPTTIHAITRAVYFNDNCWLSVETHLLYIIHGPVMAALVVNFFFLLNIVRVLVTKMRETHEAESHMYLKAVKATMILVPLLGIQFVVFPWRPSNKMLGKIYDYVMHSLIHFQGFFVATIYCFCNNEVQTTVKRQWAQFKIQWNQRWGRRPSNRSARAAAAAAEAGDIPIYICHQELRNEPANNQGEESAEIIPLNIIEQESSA
T1 sequence (O60896 24-148 partner): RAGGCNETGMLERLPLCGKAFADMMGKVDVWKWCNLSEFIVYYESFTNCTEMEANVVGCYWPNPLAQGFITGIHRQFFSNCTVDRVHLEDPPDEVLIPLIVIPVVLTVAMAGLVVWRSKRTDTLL
Procedure, shortened: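 Thawed cells from a sub-cloned monoclonal hAMY3-overexpressing line are plated in DPBS containing 0.05% casein and 0.5 mM IBMX. Test compounds are added immediately at graded doses for 30 min at room temperature. Reagents for cAMP detection are then added, and TR-FRET is recorded after one hour.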

hAM1 receptor = hAM1 receptor (Homo sapiens, UniProt O60895+Q16602); experiment: cAMP assay for in vitro receptor activation, hAM1-R; type: cell-based; conditions: cAMP assay, hAM1 receptor; read-out: hAM1R EC50
Procedure, shortened: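 Read-out is intracellular cAMP as a measure of receptor activation. Cells stably overexpressing hAM1 were subcloned to a monoclonal line, then thawed and seeded at 8000 cells/well in DPBS with 0.05% casein and the phosphodiesterase inhibitor IBMX at 0.5 mM.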

[1] = Physical stability of peptide analogues (Thioflavin T fibrillation); type: physicochemical; conditions: maximum ThT signal normalized between hAMY maximum and buffer background; 40° C., shaking, four days; pH 7 per table title
Procedure, shortened: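 ThT fluorescence (450 nm excitation, 480 nm emission; 4 μM dye) was read every 10 min over four days at 40° C under 700 rpm shaking stress, after 1 h in pH 4 acetate or pH 7 phosphate (50 mM). Peak smoothed signal expressed as percent, scaled between buffer background and hAMY maximum.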

Chain of hAM1 receptor (Q16602 23-461): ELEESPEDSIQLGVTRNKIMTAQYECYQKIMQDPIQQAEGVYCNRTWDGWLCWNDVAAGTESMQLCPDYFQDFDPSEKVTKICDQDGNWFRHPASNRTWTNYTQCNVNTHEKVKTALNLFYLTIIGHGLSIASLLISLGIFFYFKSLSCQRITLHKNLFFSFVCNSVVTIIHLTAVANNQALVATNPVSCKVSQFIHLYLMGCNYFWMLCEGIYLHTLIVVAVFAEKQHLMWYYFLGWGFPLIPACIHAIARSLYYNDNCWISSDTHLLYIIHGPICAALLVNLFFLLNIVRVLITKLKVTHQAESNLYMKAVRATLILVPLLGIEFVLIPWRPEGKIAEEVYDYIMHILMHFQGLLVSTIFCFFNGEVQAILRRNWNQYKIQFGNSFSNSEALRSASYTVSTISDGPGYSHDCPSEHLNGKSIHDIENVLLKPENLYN
Chain of hAM1 receptor (O60895 43-175 partner): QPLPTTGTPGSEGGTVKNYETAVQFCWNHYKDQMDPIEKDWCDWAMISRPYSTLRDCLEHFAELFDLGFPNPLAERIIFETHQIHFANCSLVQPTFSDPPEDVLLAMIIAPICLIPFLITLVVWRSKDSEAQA

Row | EC50 (hAMY3 receptor) [nM] | EC50 (hAM1 receptor) [nM] | Max ThT signal (%) [1] [%] | SMILES
1 | 0.157 | > 5000 | 31.200 | CC[C@H](C)[C@H](NC(=O)[C@H](CCC(N)=O)NC(=O)[C@H](Cc1c[nH]cn1)NC(=O)[C@H](C)NC(=O)[C@H](CC(C)C)NC(=O)[C@H](CCCNC(N)=O)NC(=O)[C@H](CCC(N)=O)NC(=O)[C@@H](NC(=O)[C@@H](NC(=O)[C@@H]1CSSC[C@H](NC(=O)CN)C(=O)N[C@@H](CCCNC(=N)N)C(=O)N[C@@H]([C@@H](C)O)C(=O)NCC(=O)N[C@@H]([C@@H](C)O)C(=O)N1)[C@@H](C)O)C(C)C)C(=O)N[C@@H](Cc1ccc(O)cc1)C(=O)N[C@@H](CCC(N)=O)C(=O)N[C@@H](Cc1ccccc1)C(=O)N[C@H](C(=O)N[C@@H](CC(=O)O)C(=O)N[C@@H](CCCCN)C(=O)N[C@@H](CC(=O)O)C(=O)N[C@@H](CCCCN)C(=O)N[C@@H](CC(=O)O)C(=O)N[C@@H](CC(N)=O)C(=O)N[C@H](C(=O)N[C@@H](C)C(=O)N1CCC[C@H]1C(=O)N[C@@H](CCCNC(=N)N)C(=O)N[C@@H](CO)C(=O)N[C@@H](CCCCN)C(=O)N[C@H](C(=O)NCC(=O)N1CCC[C@H]1C(=O)N[C@@H](CCC(N)=O)C(=O)NCC(=O)N[C@@H](Cc1ccc(O)cc1)C(N)=O)C(C)C)C(C)C)[C@@H](C)O [compound 285] (H-GCRTGTCTVQ[Cit]LAHQIYQFTDKDKDNVAPRSKVGPQGY-NH2; disulfide 2-7; N-terminus assumed)
2 | 0.085 | > 5000 | 1.200 | CC[C@H](C)[C@H](NC(=O)[C@H](CCC(N)=O)NC(=O)[C@H](Cc1c[nH]cn1)NC(=O)[C@H](C)NC(=O)[C@H](CC(C)C)NC(=O)[C@H](Cc1c[nH]c2ccccc12)NC(=O)[C@H](CCC(N)=O)NC(=O)[C@@H](NC(=O)[C@@H](NC(=O)[C@@H]1CSSC[C@H](NC(=O)CN)C(=O)N[C@@H](CCCNC(=N)N)C(=O)N[C@@H]([C@@H](C)O)C(=O)NCC(=O)N[C@@H]([C@@H](C)O)C(=O)N1)[C@@H](C)O)C(C)C)C(=O)N[C@@H](Cc1ccc(O)cc1)C(=O)N[C@@H](CCC(N)=O)C(=O)N[C@@H](Cc1ccccc1)C(=O)N[C@H](C(=O)N[C@@H](CC(=O)O)C(=O)N[C@@H](CCCCN)C(=O)N[C@@H](CC(=O)O)C(=O)N[C@@H](CCCCN)C(=O)N[C@@H](CC(=O)O)C(=O)N[C@@H](CC(N)=O)C(=O)N[C@H](C(=O)N[C@@H](C)C(=O)N1CCC[C@H]1C(=O)N[C@@H](CCCNC(=N)N)C(=O)N[C@@H](CO)C(=O)N[C@@H](CC(N)=O)C(=O)N[C@H](C(=O)NCC(=O)N1CCC[C@H]1C(=O)N[C@@H](CCC(N)=O)C(=O)NCC(=O)N[C@@H](Cc1ccc(O)cc1)C(N)=O)C(C)C)C(C)C)[C@@H](C)O [compound 346] (H-GCRTGTCTVQWLAHQIYQFTDKDKDNVAPRSNVGPQGY-NH2; disulfide 2-7; N-terminus assumed)
3 | 0.007 | > 5000 | 25.000 | CC[C@H](C)[C@H](NC(=O)[C@H](CCC(N)=O)NC(=O)[C@H](Cc1c[nH]cn1)NC(=O)[C@H](C)NC(=O)[C@H](CC(C)C)NC(=O)[C@H](CCCNC(N)=O)NC(=O)[C@H](CCC(N)=O)NC(=O)[C@@H](NC(=O)[C@@H](NC(=O)[C@@H]1CSSC[C@H](NC(=O)[C@@H](N)CCCCN)C(=O)N[C@@H](CC(N)=O)C(=O)N[C@@H]([C@@H](C)O)C(=O)N[C@@H](C)C(=O)N[C@@H]([C@@H](C)O)C(=O)N1)[C@@H](C)O)C(C)C)C(=O)N[C@@H](Cc1ccc(O)cc1)C(=O)N[C@@H](CCC(N)=O)C(=O)N[C@@H](Cc1ccccc1)C(=O)N[C@H](C(=O)N[C@@H](CC(=O)O)C(=O)N[C@@H](CCCCN)C(=O)N[C@@H](CC(=O)O)C(=O)N[C@@H](CCCCN)C(=O)N[C@@H](CC(=O)O)C(=O)N[C@@H](CC(N)=O)C(=O)N[C@H](C(=O)N[C@@H](C)C(=O)N1CCC[C@H]1C(=O)N[C@H](C(=O)N[C@@H](CC(N)=O)C(=O)N[C@H](C(=O)NCC(=O)N[C@@H](CO)C(=O)N[C@@H](CC(N)=O)C(=O)NCC(=O)N1C[C@H](O)C[C@H]1C(N)=O)C(C)C)[C@@H](C)O)C(C)C)[C@@H](C)O [compound 255] (H-KCNTATCTVQ[Cit]LAHQIYQFTDKDKDNVAPTNVGSNG[Hyp]-NH2; disulfide 2-7; N-terminus assumed)
4 | 0.034 | 5.94 | 9.600 | CC[C@H](C)[C@H](NC(=O)[C@H](CCC(N)=O)NC(=O)[C@H](Cc1c[nH]cn1)NC(=O)[C@H](C)NC(=O)[C@H](CC(C)C)NC(=O)[C@H](CCCNC(=N)N)NC(=O)[C@H](CCC(N)=O)NC(=O)[C@@H](NC(=O)[C@@H](NC(=O)[C@@H]1CSSC[C@H](NC(=O)CN)C(=O)N[C@@H](CCCNC(=N)N)C(=O)N[C@@H](Cc2ccccc2)C(=O)NCC(=O)N[C@@H]([C@@H](C)O)C(=O)N1)[C@@H](C)O)C(C)C)C(=O)N[C@@H](Cc1ccc(O)cc1)C(=O)N[C@@H](CCC(N)=O)C(=O)N[C@@H](Cc1ccccc1)C(=O)N[C@H](C(=O)N[C@@H](CC(=O)O)C(=O)N[C@@H](CCCCN)C(=O)N[C@@H](CC(=O)O)C(=O)N[C@@H](CCCCN)C(=O)N[C@@H](CC(=O)O)C(=O)N[C@@H](CC(N)=O)C(=O)N[C@H](C(=O)N[C@@H](C)C(=O)N1CCC[C@H]1C(=O)N[C@@H](CCCNC(=N)N)C(=O)N[C@@H](CO)C(=O)N[C@@H](CC(N)=O)C(=O)N[C@H](C(=O)N[C@@H](CO)C(=O)N1CCC[C@H]1C(=O)N[C@@H](CC(N)=O)C(=O)NCC(=O)N[C@@H](Cc1ccc(O)cc1)C(N)=O)[C@@H](C)CC)C(C)C)[C@@H](C)O [compound 383] (H-GCRFGTCTVQRLAHQIYQFTDKDKDNVAPRSNISPNGY-NH2; disulfide 2-7; N-terminus assumed)
5 | 0.047 | > 5000 | 17.300 | CC[C@H](C)[C@H](NC(=O)[C@H](CCC(N)=O)NC(=O)[C@H](Cc1c[nH]cn1)NC(=O)[C@H](C)NC(=O)[C@H](CC(C)C)NC(=O)[C@H](CCCNC(N)=O)NC(=O)[C@H](CCC(N)=O)NC(=O)[C@@H](NC(=O)[C@@H](NC(=O)[C@@H]1CSSC[C@H](NC(=O)CN)C(=O)N[C@@H](CCCNC(=N)N)C(=O)N[C@@H]([C@@H](C)O)C(=O)NCC(=O)N[C@@H]([C@@H](C)O)C(=O)N1)[C@@H](C)O)C(C)C)C(=O)N[C@@H](Cc1ccc(O)cc1)C(=O)N[C@@H](CCC(N)=O)C(=O)N[C@@H](Cc1ccccc1)C(=O)N[C@H](C(=O)N[C@@H](CC(=O)O)C(=O)N[C@@H](CCCCN)C(=O)N[C@@H](CC(=O)O)C(=O)N[C@@H](CCCCN)C(=O)N[C@@H](CC(=O)O)C(=O)N[C@@H](CC(N)=O)C(=O)N[C@H](C(=O)N[C@@H](C)C(=O)N1CCC[C@H]1C(=O)N[C@@H](CCCNC(=N)N)C(=O)N[C@@H](CO)C(=O)N[C@@H](CCCCN)C(=O)N[C@H](C(=O)NCC(=O)N1CCC[C@H]1C(=O)N[C@@H](CC(N)=O)C(=O)NCC(=O)N1C[C@H](O)C[C@H]1C(N)=O)C(C)C)C(C)C)[C@@H](C)O [compound 290] (H-GCRTGTCTVQ[Cit]LAHQIYQFTDKDKDNVAPRSKVGPNG[Hyp]-NH2; disulfide 2-7; N-terminus assumed)
6 | 0.041 | > 5000 | 2.750 | CC[C@H](C)[C@H](NC(=O)[C@H](CC(N)=O)NC(=O)[C@@H](NC(=O)[C@H](CCCNC(=N)N)NC(=O)[C@@H]1CCCN1C(=O)[C@H](C)NC(=O)[C@@H](NC(=O)[C@H](CC(N)=O)NC(=O)[C@H](CC(=O)O)NC(=O)[C@H](CCCCN)NC(=O)[C@H](CC(=O)O)NC(=O)[C@H](CCCCN)NC(=O)[C@H](CC(=O)O)NC(=O)[C@@H](NC(=O)[C@H](Cc1ccccc1)NC(=O)[C@H](CCC(N)=O)NC(=O)[C@H](Cc1ccc(O)cc1)NC(=O)[C@@H](NC(=O)[C@H](CCC(N)=O)NC(=O)[C@H](Cc1c[nH]cn1)NC(=O)[C@H](C)NC(=O)[C@H](CC(C)C)NC(=O)[C@H](Cc1c[nH]c2ccccc12)NC(=O)[C@H](CCC(N)=O)NC(=O)[C@@H](NC(=O)[C@@H](NC(=O)[C@@H]1CSSC[C@H](NC(=O)CN)C(=O)N[C@@H](CCCNC(=N)N)C(=O)N[C@@H]([C@@H](C)O)C(=O)NCC(=O)N[C@@H]([C@@H](C)O)C(=O)N1)[C@@H](C)O)C(C)C)[C@@H](C)CC)[C@@H](C)O)C(C)C)[C@@H](C)O)C(=O)NCC(=O)N1CCC[C@H]1C(=O)N[C@@H](CC(N)=O)C(=O)NCC(=O)N[C@@H](Cc1ccc(O)cc1)C(N)=O [compound 348] (H-GCRTGTCTVQWLAHQIYQFTDKDKDNVAPRTNIGPNGY-NH2; disulfide 2-7; N-terminus assumed)
